Active and inactive are the calls of the source. How the calls were made is not given here.

Assay [1] can be described thus: inhibitors of PAF-induced NFkB signaling in CF airway cells, dose response, cell-based, uHTS hits, panel, cytotoxicity readout (AID 624344). The note with it: CF bronchial epithelial cells, PAF-induced NFkB reporter inhibition; with PAF, mean of runs.
For another assay, the system named is Cytotoxicity. The assay is described as above. The conditions noted are these: CF bronchial epithelial cells, mean of runs.

With `COc1cccc(NC(=O)Nc2nnc(CC(=O)Nc3ccccc3)s2)c1`, the IC50 is 4.89 µM in assay [1] and 55.8 µM (inactive) with Cytotoxicity.
The like results for `COCCCN=C1NN=C(c2cc(C)n(Cc3ccccc3Cl)c2C)CS1` were, in that order, “inactive” and > 79 µM (inactive).
The matching figures for `COc1cc2c(c(OC)c1O)-c1ccc(OC)c(=O)cc1C(NC(=O)C(F)(F)F)CC2` (stereo unspecified): > 79 µM (inactive) and > 79 µM (inactive).
Consider `O=C(c1nnsc1S(=O)c1ccc(Cl)cc1)N1CCOCC1` (stereo unspecified), for which the values for the IC50 (in assay [1]; in the assay on Cytotoxicity) were 1.87 µM and 10.7 µM, respectively.
The like results for `Cc1ccnc(NC(=O)Cc2ccc(-c3ccccc3)cc2)c1` were, in that order, 9.06 µM and 47.8 µM.
The like results for `COc1nc(N)c(C#N)c(-c2ccc(N(C)CCC#N)cc2)c1C#N` were, in that order, 3.31 µM and > 79 µM (inactive).
The matching figures for `c1nc(NCc2ccc3c(c2)OCO3)c2cc(-c3ccoc3)ccc2n1`: 0.34 µM and 5.93 µM.
Consider `NC(=O)c1sc2nc3c(c(-c4ccco4)c2c1N)CCCC3`, for which the IC50 in assay [1] is 2.73 µM; with Cytotoxicity, 44.5 µM.
The matching figures for `Cc1[nH]nc2ncc(C(=O)c3ccccc3O)cc12`: 1.68 µM and 24.3 µM.
The matching figures for `Cc1nc([N+](=O)[O-])c(Sc2nc3ccccc3n2C)n1Cc1ccccc1`: 4.05 µM and 13 µM.
The matching figures for `CCc1ccccc1NC(=O)CN(C)C(=O)Cn1ncc(Cl)c(Cl)c1=O`: 6.43 µM and 38 µM.
With `C=C1C(=O)[C@]23C[C@H]1CC[C@H]2[C@]1(C)[C@@H](OC(C)=O)CC[C@@](C)(C(=O)O)[C@H]1C[C@@H]3O`, the IC50 in assay [1] is 0.938 µM; with Cytotoxicity it was 8.28 µM.
The like results for `Cc1ccc(S(=O)(=O)Nc2ccc3cc([N+](=O)[O-])ccc3c2[N+](=O)[O-])cc1` were, in that order, 3.17 µM and 4.15 µM.
The like results for `COc1ccc2c(=O)cc(-c3ccncc3)oc2c1OC` were, in that order, 3.97 µM and 13.6 µM.
The matching figures for `CC1C(=O)N(Cc2cn(Cc3ccco3)nn2)CCS(=O)(=O)N1Cc1ccc(-c2ccccc2C(F)(F)F)cc1` (stereo unspecified): 14 µM and 57.4 µM (inactive).
On to `C=C(c1ccc2nc(NC(=O)OC)[nH]c2c1)c1cccs1`, for which the IC50 is 5.04 µM in assay [1] and 25.6 µM with Cytotoxicity.
Consider `CC(C)C[C@@H](CN1CCCC1CN1C(=S)NC[C@@H]1Cc1ccc(O)cc1)N1C[C@H](Cc2ccc(O)cc2)N(CC2CCCCCC2)C1=S` (stereo partly specified), for which the IC50 in assay [1] was 7.98 µM; with Cytotoxicity, 25.2 µM.
Consider `Cc1ccc(NC(=O)Nc2nnc(-c3ccncc3)s2)cc1C`, for which the IC50 is 3.46 µM in assay [1] and 9.39 µM in the assay with Cytotoxicity.
The matching figures for `CN(C)CCCN(C(=O)CCSc1ccccc1)c1nc2cc3c(cc2s1)OCO3`: 9.46 µM and 26.1 µM.
Turning to `Cc1cc(C)cc(NS(=O)(=O)c2ccc(-c3cnc(C4CC4)o3)cc2)c1`, the IC50 was 12.1 µM in assay [1] and 40.9 µM with Cytotoxicity.
Regarding `Cn1c(Sc2ccc(Br)cc2)c(C=O)c2ccccc21`, the IC50 in assay [1] was 1.4 µM; in the assay on Cytotoxicity, 5.64 µM.
The like results for `CCCCN(CCCC)c1ncnc2nc[nH]c12` were, in that order, 5.64 µM and 41.4 µM.
The like results for `CC(=O)c1ccc(-c2cnc3c(NC=O)cc(-c4ccc(C(=O)NC5CC5)cc4)cn23)cc1` were, in that order, 4.25 µM and 27.4 µM.
The matching figures for `CN(C)c1ccnc2sc3c(=O)n(Cc4ccccc4)cnc3c12`: 1.27 µM and > 79 µM (inactive).
Consider `COc1cc(O)cc2cc3c(c(O)c12)C(=O)CC(C)(O)O3` (stereo unspecified), for which the IC50 in assay [1] is 4.17 µM; in the assay with Cytotoxicity, 45.5 µM.
The like results for `COc1ccc(C(=O)N[C@H](C(=O)Nc2nc3ccccc3[nH]2)C(C)C)cc1` were, in that order, 14.6 µM and > 79 µM (inactive).
The matching figures for `C[C@H]1C[C@@H](C)C(=O)[C@@H]([C@H](O)CC2CC(=O)NC(=O)C2)C1`: 0.37 µM and 8.86 µM.
The matching figures for `COCc1cc(S(=O)c2ccc(Cl)cc2)nc(C)n1` (stereo unspecified): 3.13 µM and 22 µM.
In the case of `CCN1CCN(Cc2ccc(NC(=O)c3ccc(C)c(NC(=O)c4ccno4)c3)cc2C(F)(F)F)CC1`, the IC50 in assay [1] was below 0.15 µM; in the assay on Cytotoxicity it was > 79 µM (inactive).
The matching figures for `S=c1[nH]nc(-c2ccncc2)n1/N=C/C(Cl)=C\c1ccccc1`: 1.06 µM and 35 µM.
The like results for `CN(C)c1ccc(-c2nn3c(-c4ccccc4Cl)nnc3s2)cc1` were, in that order, 19.2 µM and > 79 µM (inactive).
`O=C(NCc1cccnc1)/C(=C\c1ccc(-c2cccc(Cl)c2)o1)S(=O)(=O)c1ccccc1`: the IC50 in assay [1] was 1.71 µM; in the assay on Cytotoxicity, 5.33 µM.
The matching figures for `CC(C)C[C@@H](CN1CCCC1CN1C(=S)NC[C@@H]1Cc1ccc(O)cc1)N1C[C@H](Cc2ccc(O)cc2)N(CCc2ccccc2)C1=S` (stereo partly specified): 10.9 µM and 18.2 µM.
Take `Nc1cc2c(cc1Br)-c1ccccc1C2=NO`: the IC50 in assay [1] was 11.9 µM; with Cytotoxicity it was 60.6 µM (inactive).
Regarding `c1cc(-c2nnc3sc(C4CCCCC4)nn23)ccn1`, the IC50 is 3.45 µM in assay [1] and > 79 µM (inactive) in the assay on Cytotoxicity.
The matching figures for `CCN1CCN(Cc2ccc(NC(=O)c3ccc(C)c(NC(=O)C(=O)c4c[nH]c5ccccc45)c3)cc2C(F)(F)F)CC1`: 1.27 µM and 10.4 µM.
The matching figures for `O=C(Nc1ccc(Cl)cc1)c1nc[nH]c1C(=O)NCCCCNC(=O)c1[nH]cnc1C(=O)Nc1ccc(Cl)cc1`: 1.05 µM and 1.11 µM.
The like results for `CC(=O)c1ccc(Nc2ncnc3ccc(Br)cc23)cc1` were, in that order, 2.18 µM and 37 µM.
For `Cn1c(=O)c2c(nc(Oc3ccc4ccccc4c3)n2C)n(C)c1=O`, the IC50 is 9.64 µM in assay [1] and > 79 µM (inactive) in the assay on Cytotoxicity.
With `COc1ccccc1NC(=O)c1cc2c(CO)cnc(C)c2oc1=Nc1ccc(OC)c(OC)c1`, the results for the IC50 (in assay [1]; in the assay on Cytotoxicity) were 9.49 µM and 12.2 µM, respectively.
`CC1(C)CC(=O)C(C2C3=C(CC(C)(C)CC3=O)Oc3c(Br)cc(Br)cc32)=C(O)C1` (stereo unspecified): the results for the IC50 (in assay [1]; in the assay with Cytotoxicity) were 6.19 µM and 15.1 µM, respectively.
As for `O=C(Nc1ccccc1)Nc1ncc([N+](=O)[O-])s1`, the IC50 in assay [1] was 2.73 µM; with Cytotoxicity, 12.6 µM.
For the molecule `CCOc1ccccc1NC(=O)c1nc(S(=O)(=O)Cc2ccccc2)ncc1Cl`, the values for the IC50 (in assay [1]; with Cytotoxicity) were 1.83 µM and 2.27 µM, respectively.
The like results for `COc1ccc(NC(=O)c2cc3c(-c4ccc(OC)c(OC)c4)nn(C)c3s2)cc1OC` were, in that order, 6.06 µM and 5.55 µM.
The like results for `CCc1cc(-c2[nH]ncc2-c2ccc(OC)cc2)c(O)cc1O` were, in that order, 3.56 µM and 31 µM.
The matching figures for `Cc1ccc(C)c(S(=O)(=O)N(C(=O)c2ccncc2)c2ccc(OC(=O)c3ccncc3)cc2)c1`: 2.37 µM and 26.2 µM.
With `CCc1ccc(Nc2n[n+](-c3ccccc3)c(-c3c(Cl)cccc3Cl)s2)cc1`, the IC50 was 5.47 µM in assay [1] and 6.29 µM in the assay with Cytotoxicity.
Regarding `C[C@]12CCC(O)CC1CCC1C2CC[C@]2(C)C(c3cc(C(F)(F)F)n[nH]3)CCC12` (stereo partly specified), the IC50 in assay [1] was 1.92 µM; in the assay on Cytotoxicity, 5.25 µM.

What is called IC50 is the concentration at which inhibition is half-maximal.

(Values after PubChem BioAssay AID624344 (Sanford-Burnham Center for Chemical Genomics, 2012).)
